Test results as given in EP4733299A1, “SULFUR-CONTAINING FUSED RING COMPOUND, PHARMACEUTICAL COMPOSITION CONTAINING SAME, AND PREPARATION METHOD THEREFOR AND USE THEREOF” (Shenzhen Braegen Pharmaceutical Co., Ltd., priority 2023, dated 2024).

Biological target: T1, a-Syn aggregates (Homo sapiens, UniProt P37840, A53T)
T1 construct: tissue The Jackson Laboratory 017682; host or cells: brain sections of rotenone-treated transgenic mice
Assay: Binding specificity on brain slices of rotenone-treated SNCA transgenic mice
Details: for capture of a-Syn aggregates: brain slices, rotenone-treated SNCA Tg mice, Fig. 2
Description: To further explore whether the positive compounds selectively bind to Lewy bodies, brain slices from mice were used to test the binding specificity assays.
Staining with a-Synuclein protein coding gene (SNCA) transgenic mice (the Jackson Laboratory; stock numbers: 017682) were treated with rotenone (Oral gavage of rotenone under the following protocol: Mice were treated with 0.1 mL/25 g of vehicle containing 1% methylcellulose (Sigma, Catalog No.: M0512) and 1.25% chloroform (Sigma, Catalog No.: 2432) or a solution containing 0.625 mg/mL of rotenone (ULTRA Scientific, Catalog No.: PST-890) with 1% methylcellulose and 1.25% chloroform. We prepared rotenone solution by dissolving rotenone in chloroform and then diluting into 1% methylcellulose solution while mixing vigorously. Rotenone or vehicle control was orally administered with a 1.2 x 60 mm gavage (Unimed, Switzerland) once a day for 5 days/week, consecutively for 3 months.), which contains abundant LB-like inclusions. Furthermore, brain slices from NFT abundant Tau P301S mice and Aβ-enriched 5 x FAD mice were also used separately.
The brain slices were fixed and incubated for 12 h at 4 °C with primary antibodies followed by incubation with Alexa Fluor 568-, Alexa Fluor 488-, or Alexa Fluor 647-conjugated secondary antibodies (Invitrogen) for 3 h at room temperature. Then stained with ThS (Sigma, Catalog No.: T1892) or candidate compounds at room temperature, 4',6-diamidino-2-phenylindole (DAPI, 1 µg/ml) (Sigma-Aldrich) was used for the nuclear staining. The slides were imaged with Olympus FluoView FV1000 confocal laser scanning microscope using Olympus FluoView software to acquire data.

capture of a-Syn aggregates	Molecule	co-localization with aggregates in the brain sections (positive control, mouse brain sections)
sensitively captured a-Syn aggregates	COc1cc(/C=C/c2nc3cc(C)c(N(C)CCOCCF)cc3s2)ccc1O [Compound A, (E)-4-(2-(6-((2-(2-fluoroethoxy)ethyl)(methyl)amino)-5-methylbenzo[d]thiazol-2-yl)vinyl)-2-methoxyphenol]	
sensitively captured a-Syn aggregates	COc1cc(/C=C/c2nc3cc(C)c(N(C)CCOCCF)cc3s2)cc(Br)c1O [Compound S, (E)-2-bromo-4-(2-(6-((2-(2-fluoroethoxy)ethyl)(methyl)amino)-5-methylbenzo[d]thiazol-2-yl)vinyl)-6-methoxyphenol]	
	thioflavin-S [ThS, reference compound]	co-localized with all of these aggregates
